Data: PMC8426295, “Cytotoxic and radiosensitising effects of a novel thioredoxin reductase inhibitor in breast cancer” (Investigational New Drugs, 2021)
Marks after values point to notes of the source that are not given here.

Assays:
MCF-7 cells [1] = assay: Cell proliferation assay (cell count); format: cell-based; conditions: Homo sapiens, MCF7, 48 h
Protocol: (§1) 1 × 10^5 cells (2 × 10^5 for T47D’s) were seeded, in triplicate, in 6-well plates and incubated overnight before being treated with IQ9 (0–5000 nM) or doxorubicin (400–600 nM) (positive control and comparator). Total cells were counted after 48 h using a haemocytometer. The total cell count in drug treatment wells was normalised as a percentage of the total cells in vehicle control wells.
(§2) IC50 values were calculated from dose-response curves using an SPSS regression model between inhibition ratios and concentration gradients. The radiobiological parameters: alpha (α), beta (β), α/β ratio, and surviving fraction at 2 Gy (SF2) were extracted from the survival curves fitted using the LQ model. All results are presented as average ± standard deviation (SD) of three independent experiments, each performed in triplicate. Data were analysed using the student T-test and ANOVA one-way test. Statistical analysis was performed using SPSS 23.0 software. Values of P < 0.05 were considered statistically significant.

MDA-MB-231 cells [2] = assay: Cell proliferation assay (cell count); format: cell-based; conditions: Homo sapiens, MDA-MB-231, 48 h
Protocol: as §1, §2

MDA-MB-436 cells [3] = assay: Cell proliferation assay (cell count); format: cell-based; conditions: Homo sapiens, MDA-MB-436, 48 h
Protocol: as §1, §2

MDA-MB-468 cells [4] = assay: Cell proliferation assay (cell count); format: cell-based; conditions: Homo sapiens, MDA-MB-468, 48 h
Protocol: as §1, §2

breast cancer cells = assay: Potency against breast cancer cells (IC50 range, comparison of TrxR inhibitors); format: cell-based; conditions: Homo sapiens; range over the cell lines and assays of this study
T47D cells = assay: Drug-radiation combination clonogenic survival (LQ model); format: cell-based, human; conditions: for SER (sensitiser enhancement ratio): at 1% cell survival
Protocol: (§3) 5 × 10^5 cells were seeded in T25 cm^2 tissue culture flasks and incubated overnight. The sub-confluent cells were then treated either for 4-h or 48-h with IQ9 (0–5000 nM) or doxorubicin (10–20 nM). Following drug treatment, cells were collected, counted, and plated at low-density, in triplicate, and incubated, at 37 °C, 5% CO2, undisturbed, for 2 weeks for TNBC cells and 3 weeks for luminal cells, for colony formation. Colonies were fixed (50% methanol in 0.9% saline solution) and stained (0.5% crystal violet solution). Colonies consisting of more than 50 cells were confirmed by microscopy and scored as survivors. The plating efficiency (PE) was calculated as numbers of colonies formed/ numbers of cells plated. For single-agent treatment, drug or radiation, the surviving fraction was calculated as: number of colonies formed/ (numbers of cell plated x PE). For drug radiation combination experiments, cytotoxicity of drug treatment was accounted for by calculating surviving fraction as: number of colonies formed from each radiation dose/ (number of cells plated × PE × surviving fraction of drug-treated cell at 0 Gy).
(§4) Sub-confluent cells were irradiated with a dose of 2, 4, 6, or 8 Gy (at a dose rate of 0.87 Gy/min) using an RS225 x-ray cabinet irradiation system (Xstrahl Limited, UK), fitted with a 0.5 mm Cu filter and run at 195 kV, 10 mA. Following irradiation, cells were immediately trypsinised and plated for clonogenic survival. Sham-irradiated cells were used as controls. Dose-response curves were plotted as a function of radiation dose on a log/ linear plot. Clonogenic survival calculation software (CS-CAL), developed by the Translational Radiation Oncology Group, German Cancer Research Centre was used to fit survival curves to the linear-quadratic (LQ) model (equation: […] ). The software can be accessed online at http://angiogenesis.dkfz.de/oncoexpress/software/cs-cal/. For drug-radiation combinations, cells were treated with 1000 nM IQ9 (2500 nM for T47D) for 4 h followed by irradiation (0–8 Gy). For 48 h drug treatment experiments, MDA-MB-231 and T47D cells were treated with clonogenic IC50 concentrations of IQ9 before irradiation. The sensitiser enhancement ratio (SER), calculated by dividing the X-ray dose causing 1% cell survival in the absence of drug treatment by the X-ray dose leading to 1% cell survival in the presence of drug treatment, was used to evaluate the degree of radiosensitisation.
as §2

MCF-7 cells [5] = assay: as above; format: cell-based, human; conditions: 1000 nM IQ9 for 4 h followed by irradiation
Protocol: as §3, §4, §2

MDA-MB-231 cells [6] = assay: as above; format: cell-based, human; conditions: for SER (sensitiser enhancement ratio): at 1% cell survival
Protocol: as §3, §4, §2

MDA-MB-436 cells [7] = assay: as above; format: cell-based, human
Protocol: as §3, §4, §2

MDA-MB-468 cells [8] = assay: as above; format: cell-based, human
Protocol: as §3, §4, §2

Txnip = assay: Western blotting of Txnip expression; format: cell-based, human; conditions: any of the breast cancer cell lines, clonogenic IC50 concentration, 48 h
Protocol: Cells were treated with IQ9 (clonogenic IC50 concentrations) for 48 h, harvested, and resuspended in 1 mL of RIPA buffer (Sigma, UK) supplemented with 1X Halt phosphatase inhibitor cocktail, protease inhibitor cocktail, and EDTA. Samples were run on an SDS-polyacrylamide gel and transferred onto a 0.2 μm nitrocellulose membrane (GE Healthcare). The membrane was then blocked using 5% milk powder in 0.1% PBS/ Tween20, for 1 h at room temperature and then incubated with primary antibody overnight at 4 °C. Anti-β-actin antibody (Abcam) was used as a loading control. Primary antibodies were rabbit anti-human Trx (Abcam; 1:1000), mouse anti-human antibody (Abcam; 1:500), and rabbit anti-human Txnip (Abcam; 1:500). For Trx and Txnip, bands were detected using an Odyssey FC Imager (LI-COR). Images were obtained and fluorescence intensity quantified using Image Studio Software (version 4). The signals for Trx and Txnip were normalised against β-actin. For TrxR, bands were detected using an Amersham Enhanced Chemiluminescence system (GE Healthcare).

[9] = 2500 nM IQ9 for 4 h followed by irradiation
[10] = IQ9 exposure 48 h before irradiation
[11] = clonogenic IC50 concentration of IQ9 for 48 h before irradiation
[12] = 1000 nM IQ9 for 4 h followed by irradiation
[13] = 1000 nM IQ9 for 4 h followed by irradiation, at 1% cell survival
[14] = IQ9 for 4 h followed by irradiation, vs control

SMILES: COC1=CC(=O)c2c(c(COc3c(F)cc(F)cc3F)cn2C)C1=O [IQ9]
- IC50 (MCF-7 cells [1]): 379 ± 42.4 nM
- IC50 (MDA-MB-231 cells [2]): 246 ± 55.3 nM
- IC50 (MDA-MB-436 cells [3]): 171 ± 81.4 nM
- IC50 (MDA-MB-468 cells [4]): 425 ± 155 nM
- IC50 (breast cancer cells): 200 to 2000 nM
- SF2 (surviving fraction at 2 Gy) (T47D cells; [9]): 0.45 ± 0.02
- α (T47D cells; [9]): 0.47 ± 0.04 Gy^−1
- α/β Ratio (T47D cells; [9]): 15.66 ± 1.17
- β (T47D cells; [9]): 0.03 ± 0.00 Gy^−2
- SER (sensitiser enhancement ratio) (T47D cells; [9]): 1.00
- radiosensitivity (in words) (T47D cells; [10]): no significant increase in radiosensitivity
- radiosensitisation (in words) (T47D cells; IQ9 for 4 h followed by irradiation): no altered radiosensitisation
- SF2 (surviving fraction at 2 Gy) (T47D cells; [11]): 0.31 ± 0.04
- α (T47D cells; [11]): 0.40 ± 0.12 Gy^−1
- α/β Ratio (T47D cells; [11]): 7.27 ± 5.53
- β (T47D cells; [11]): 0.05 ± 0.02 Gy^−2
- SER (sensitiser enhancement ratio) (T47D cells; [11]): 1.00
- SF2 (surviving fraction at 2 Gy) (MCF-7 cells [5]): 0.24 ± 0.10
- α (MCF-7 cells [5]): 0.58 ± 0.18 Gy^−1
- α/β Ratio (MCF-7 cells [5]): 7.25 ± 3.19
- β (MCF-7 cells [5]): 0.08 ± 0.02 Gy^−2
- SER (sensitiser enhancement ratio) (MCF-7 cells [5]; at 1% cell survival): 1.08
- SF2 (surviving fraction at 2 Gy) (MDA-MB-231 cells [6]; [12]): 0.21 ± 0.02
- α (MDA-MB-231 cells [6]; [12]): 0.70 ± 0.17 Gy^−1
- α/β Ratio (MDA-MB-231 cells [6]; [12]): 11.67 ± 3.63
- β (MDA-MB-231 cells [6]; [12]): 0.06 ± 0.01 Gy^−2
- SER (sensitiser enhancement ratio) (MDA-MB-231 cells [6]; [12]): 1.20
- radiosensitivity (in words) (MDA-MB-231 cells [6]; [10]): no significant increase in radiosensitivity
- SF2 (surviving fraction at 2 Gy) (MDA-MB-231 cells [6]; [11]): 0.22 ± 0.08
- α (MDA-MB-231 cells [6]; [11]): 0.85 ± 0.04 Gy^−1
- α/β Ratio (MDA-MB-231 cells [6]; [11]): 25.60 ± 4.62
- β (MDA-MB-231 cells [6]; [11]): 0.03 ± 0.01 Gy^−2
- SER (sensitiser enhancement ratio) (MDA-MB-231 cells [6]; [11]): 1.07
- SF2 (surviving fraction at 2 Gy) (MDA-MB-436 cells [7]; [12]): 0.07 ± 0.01
- α (MDA-MB-436 cells [7]; [12]): 1.33 ± 0.06* Gy^−1
- α/β Ratio (MDA-MB-436 cells [7]; [12]): 66.53 ± 2.89
- β (MDA-MB-436 cells [7]; [12]): 0.02 ± 0.00 Gy^−2
- SER (sensitiser enhancement ratio) (MDA-MB-436 cells [7]; [13]): 1.43
- factor of increase in α (MDA-MB-436 cells [7]; [14]): 1.8
- SF2 (surviving fraction at 2 Gy) (MDA-MB-468 cells [8]; [12]): 0.19 ± 0.01
- α (MDA-MB-468 cells [8]; [12]): 0.85 ± 0.08* Gy^−1
- α/β Ratio (MDA-MB-468 cells [8]; [12]): 85.00 ± 8.18
- β (MDA-MB-468 cells [8]; [12]): 0.01 ± 0.00 Gy^−2
- SER (sensitiser enhancement ratio) (MDA-MB-468 cells [8]; [13]): 1.30
- factor of increase in α (MDA-MB-468 cells [8]; [14]): 1.4
- Txnip expression (Txnip): not affected
